Assay results taken from PubChem BioAssay AID179 (DTP/NCI, 2004).
The source made the active and inactive calls.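 The calls were made as follows: active = compounds giving half or more protection of infected cells from virus-caused growth loss, again on retest; inactive = the rest.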

System: CEM cells HIV-1 protection, formazan growth assay
Test: NCI AIDS Antiviral Assay
Conditions: for IC50: measured here: growth of uninfected CEM cells
Outline: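 Human CEM cells, uninfected and HIV-1-infected, received five drug concentrations, and growth was read by soluble formazan assay. Compounds giving at least 50% protection were retested; reproducible 100% protection defined confirmed active.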

c1ccc(C2=C(c3ccccc3)CSSC2)cc1
EC50: > 69.2 µM
IC50: > 69.2 µM

C=C1CCC2C(C)(CO)C(O)CCC2(C)C1CC(O)C1=CCOC1=O (stereo not given)
outcome: inactive

C=C1CCCCCCCCCCC12SCCC2CCCCSC (stereo not given)
EC50: > 200 µM
IC50: 120 µM

CCOC(=O)/C(=C\c1ccc(O)c(OC)c1)C(=O)c1ccccc1
EC50: > 288 µM
IC50: 41.7 µM

Cn1cc(C(=O)c2ccccc2)ccc1=O
EC50: > 617 µM
IC50: 479 µM

O=c1ccnc2c1ccc1[nH]cccc12
EC50: > 1260 µM
IC50: 64.6 µM

[N-]=[N+]=NC1(N=[N+]=[N-])C(=O)NN=C(c2ccccc2)C1=O (stereo not given)
outcome: inactive

CN(C)/C=N\c1nncc2[nH]cnc12
EC50: > 200 µM
IC50: 15.1 µM

COc1ccc2nc3cc([N+](=O)[O-])ccc3c(NCCCN(C)C)c2c1
EC50: > 2 µM
IC50: 0.38 µM

C=CCCN(C=O)CCC/C(=C/CCCC)[Si](C)(C)C
EC50: > 24.5 µM
IC50: > 24.5 µM

O=C(N/N=C/c1cc(S(=O)(=O)O)c2cccnc2c1O)C(=O)N/N=C/c1cc(S(=O)(=O)O)c2cccnc2c1O
EC50: > 200 µM
IC50: 41.7 µM

CC1(C)N=C(/C(C#N)=[N+](/[O-])C(=O)c2ccccc2)C(C)(C)N1O
EC50: > 200 µM
IC50: > 200 µM

[N-]=[N+]=C1CNC(=O)NC1=O
EC50: > 200 µM
IC50: 30.2 µM

COC(=O)[C@@H]1O[C@]12C(CO[Si](C)(C)C(C)(C)C)OC(n1ccc(=O)[nH]c1=O)C2O[Si](C)(C)C(C)(C)C (stereo not given in full)
EC50: > 200 µM
IC50: 9.77 µM

S=c1sc(-c2ccccc2)c[se]1
EC50: > 50.1 µM
IC50: 29.5 µM

COC(=O)C1=C(C(=O)NNc2ccccc2)N(c2cccnc2Cl)C(c2ccccc2)=CC1c1ccccc1 (stereo not given)
EC50: > 200 µM
IC50: 22.9 µM

Cc1c(C)c(C)c(Cn2[nH]c(=O)n(C)c2=O)c(C)c1C
EC50: > 200 µM
IC50: > 200 µM

COCCCNc1nc(N)c(C#N)c(C#N)c1C#N
outcome: inactive

CC(=O)OCC1OC(NC(=S)Nn2c(-c3ccccc3)nc3ccccc3c2=O)C(OC(C)=O)C(OC(C)=O)C1OC(C)=O (stereo not given)
EC50: > 200 µM
IC50: > 100 µM

COc1cc(C2C3=C(COC3=O)OC(C)(C)Oc3cc4c(cc32)OCO4)cc(OC)c1OC (stereo not given)
EC50: > 2 µM
IC50: 0.355 µM

Cc1cc(NS(=O)(=O)c2ccc(Nc3c4ccccc4nc4c(C(=O)Nc5ccc(S(=O)(=O)N=C(N)N)cc5)cccc34)cc2)no1
EC50: 18.6 µM
IC50: 53.7 µM

O=C1/C(=C/c2ccccc2)CCC/C1=C\c1ccc(O)c(CN2CCCCC2)c1
EC50: > 200 µM
IC50: 1.17 µM

CC1CC[C@]2(C(=O)O)CCC3(C)C(=CCC4[C@@]5(C)CC[C@H](OS(=O)(=O)c6ccccc6)C(C)(C)C5CC[C@]43C)[C@@H]2[C@H]1C (stereo not given in full)
outcome: inactive

Cc1nc(Nc2ccc(Cl)cc2)sc1C(=O)NNC(=O)C(=O)NN
EC50: > 19.5 µM
IC50: > 19.5 µM

O=C(O)CN1C=C(C(=O)c2cc3ccccc3n2S(=O)(=O)c2ccccc2)CCC1
EC50: > 200 µM
IC50: 89.1 µM

Cc1c(C(=O)O)n2c(C)nnc2c2ccccc12
EC50: > 200 µM
IC50: > 200 µM

COc1nc(N=P(c2ccccc2)(c2ccccc2)c2ccccc2)cc(=O)[nH]1
outcome: inactive

O=C(O)C1C2c3ccccc3C(c3ccccc32)C1C(=O)O (stereo not given)
EC50: > 851 µM
IC50: > 851 µM

O=C1/C(=C/c2cccc(Cl)c2)CCCc2ccccc21
EC50: > 200 µM
IC50: 11.7 µM

O=C1c2ccsc2C(=O)c2ccsc21
EC50: > 6.61 µM
IC50: 5.13 µM

CCn1c(=O)c2c3cc(O)ccc3oc2c2ccc(O)cc21
EC50: > 200 µM
IC50: > 200 µM

CN(C)CC(/C(Cc1ccccc1)=N\NC(=O)C[n+]1ccccc1)c1ccccc1 (stereo not given)
EC50: > 295 µM
IC50: 138 µM

O=C(Nc1ccc(Cl)c(Cl)c1)OCC#CCOC(=O)Nc1ccc(Cl)c(Cl)c1
EC50: > 200 µM
IC50: 8.91 µM

Cc1ccc(C(=O)/C=C2/SS/C(=C/C(=O)c3ccc(C)cc3)S2)cc1
EC50: > 200 µM
IC50: > 200 µM

O=C1[C@H]2ON(c3ccccc3)C(c3ccccc3)[C@H]2C(=O)N1c1ccc(Cc2ccc(N3C(=O)[C@@H]4ON(c5ccccc5)C(c5ccccc5)[C@@H]4C3=O)cc2)cc1 (stereo not given in full)
EC50: > 13.2 µM
IC50: > 13.2 µM

COC1CCON1C(=O)c1ccccc1 (stereo not given)
EC50: > 200 µM
IC50: > 200 µM

C=C(C)CN(CC(=C)C)C(=N)OCC1CCCO1 (stereo not given)
EC50: > 200 µM
IC50: > 200 µM

C=C1C(=O)OC2C3C(C)=CC(=O)C3=C(C)CC[C@@H]12 (stereo not given in full)
EC50: > 30.9 µM
IC50: 2.04 µM

CCOC(=O)Nc1[nH]cc(-c2ccccc2)c1C#N
EC50: > 200 µM
IC50: > 200 µM

NC(CSS(=O)(=O)O)=NC1CC2CCC1C2 (stereo not given)
EC50: > 200 µM
IC50: 120 µM

CC(C)(C)C(=O)N(C(=S)OCc1ccccn1)c1ccccc1
EC50: > 200 µM
IC50: 40.7 µM

O=C(CC(=O)c1cccc2ccccc12)C(=O)Nc1nccs1
EC50: > 30.9 µM
IC50: > 30.9 µM

C1CSCCSCCS1
EC50: > 39.8 µM
IC50: > 39.8 µM

Cn1c(=O)c(C(c2ccc([N+](=O)[O-])cc2)c2c(O)c3ccccc3n(C)c2=O)cc2ccccc21 (stereo not given)
EC50: > 4.27 µM
IC50: > 4.27 µM

CCOC(=O)N1CCC2(CC1)C[C@](Sc1ccccc1)(C(C)=O)[C@H](C)O2
EC50: > 200 µM
IC50: > 200 µM

CC1(O)CC2C(CC1SC1CC3C(CC1(C)O)C3(C)C)C2(C)C (stereo not given)
EC50: > 200 µM
IC50: > 200 µM

CCOC(=O)NC(NC1=NCCS1)(C(=O)OCC)C(F)(F)F (stereo not given)
EC50: > 200 µM
IC50: 191 µM

CC(=O)Nc1ncc([N+](=O)[O-])s1
EC50: > 200 µM
IC50: > 200 µM

COc1ccccc1NC(=O)CC(=O)NN
EC50: > 200 µM
IC50: > 200 µM

CCOP(=O)(OCC)O/C(C)=C\C(=O)OC
EC50: > 501 µM
IC50: > 501 µM

O=C1c2ccccc2C(=O)c2sc(Nc3ccc(Cl)c(Cl)c3)nc21
EC50: > 19.1 µM
IC50: 15.8 µM

CC(=S)N=Cc1c(O)cc(C)oc1=O
EC50: > 200 µM
IC50: > 200 µM

O=C1CN2Cc3cc(N4CCOCC4)ccc3N=C2N1
EC50: > 257 µM
IC50: 40.7 µM

COc1ccc2c(c1)CCC1=C2CCS1(=O)=O
EC50: > 200 µM
IC50: > 200 µM

N/C=N/S(=O)(=O)c1ccc(NC(=O)COC(=O)c2cccc3c(=O)c4ccccc4[nH]c23)cc1
outcome: inactive

C=C1[C@H]2CC[C@H]3C45CO[C@@H](CC4=O)C(C)(C)C5=C(O)C(=O)C3(C2)[C@@H]1OC(C)=O
EC50: > 18.6 µM
IC50: > 18.6 µM

CC1(C)COC(c2ccc(C(=O)c3ccc(Cl)cc3)cc2)=N1
EC50: > 200 µM
IC50: 81.3 µM

C/C(=N\NC(=O)c1ccncc1)c1sc(-n2nc(-c3ccccc3)cc2-c2ccccc2)nc1C
EC50: > 11 µM
IC50: > 11 µM

BrCC[P+](c1ccccc1)(c1ccccc1)c1ccccc1
EC50: > 200 µM
IC50: 3.98 µM

CC1=C(c2cc(C(=O)Nc3cccc(C(F)(F)F)c3)ncn2)Sc2ccccc2N1
EC50: > 83.2 µM
IC50: > 83.2 µM

COc1ccc(-c2c(N3CCOCC3)oc3cc(N4CCOCC4)c(O)cc23)cc1
EC50: > 200 µM
IC50: 10.2 µM

CCCCCCCCOC1N(C2CC(N=[N+]=[N-])C(CO)O2)C(=O)NC(=O)[C@]1(C)Cl (stereo not given in full)
EC50: > 200 µM
IC50: 37.2 µM

COc1cc(OC)c(/C=C\c2ccnc3ccccc23)c(OC)c1
EC50: > 200 µM
IC50: 8.51 µM

c1csc([As](O[As](c2cccs2)c2cccs2)c2cccs2)c1
EC50: > 0.2 µM
IC50: 0.102 µM

N#C/C(=C\c1ccccc1)S(=O)(=O)/C(C#N)=C/c1ccc(O)c(O)c1
EC50: > 200 µM
IC50: 29.5 µM

Oc1c(CN2CCOCC2)cc(N=Nc2ccccc2)c(O)c1CN1CCOCC1
EC50: > 100 µM
IC50: > 100 µM

CN(C)CCNc1ncnc2nc(-c3ccccc3)c(-c3ccccc3)nc12
EC50: > 200 µM
IC50: 112 µM

CCOC(=O)C(CCCl)C(=O)OCC
EC50: > 200 µM
IC50: > 200 µM

O=C(NC(=O)c1ccccc1)OC(c1ccccc1)C1CO1 (stereo not given)
EC50: > 200 µM
IC50: > 200 µM

COc1ccc(-c2nnc(-c3c(C)n(C)n(-c4ccccc4)c3=O)o2)cc1
EC50: > 200 µM
IC50: > 200 µM

COC(=O)C(=O)C(CC(=O)Nc1c(C)cccc1C)C(=O)OC (stereo not given)
EC50: > 776 µM
IC50: > 776 µM

Nc1c([N+](=O)[O-])nc(Cl)c2nncn12
EC50: > 234 µM
IC50: 120 µM

Cc1c(O)c2ccccc2n(C)c1=O
EC50: > 200 µM
IC50: > 200 µM

CC(C)NC(=O)OCc1c(COC(=O)NC(C)C)c(-c2ccc(Cl)c(Cl)c2)n2c1CCC2
EC50: > 7.41 µM
IC50: 4.47 µM

COc1ccc2c(ccc3[nH]c4c(C)cnc(NCCCN(C)C)c4c32)c1
EC50: > 2 µM
IC50: 0.132 µM

Cc1nc2c(nc1C)C(=O)C(N1CCCCC1)=CC2=O
outcome: inactive

COc1ccnc(C(=O)N2CCCC2C(=O)O)c1 (stereo not given)
EC50: > 200 µM
IC50: > 200 µM

N#CCC(=O)N1CCCOCCC1
EC50: > 1380 µM
IC50: > 1380 µM

CNc1nc2c(C)ccc3[nH]c(N(C)C)nc3c-2n1
EC50: > 759 µM
IC50: 50.1 µM

COc1cc2c(cc1OC)C(c1ccc(N=Cc3ccc(N(C)C)cc3)cc1)N(C(=S)Nc1cc(Cl)ccc1Cl)CC2 (stereo not given)
outcome: inactive

CC(=O)OCC(OC(C)=O)C(Cl)CCl (stereo not given)
EC50: > 200 µM
IC50: > 200 µM

Cc1nc(CC2C(CO[Si](C)(C)C(C)(C)C)OC(n3ccc(=O)[nH]c3=O)C2O[Si](C)(C)C(C)(C)C)no1 (stereo not given)
EC50: > 200 µM
IC50: 6.61 µM

COC(=O)c1ccccc1C1CN=NC12Cc1c(ccc(C)c1C)C2=O (stereo not given)
EC50: > 151 µM
IC50: > 151 µM

O=C(Nc1ccc(Cl)cc1C(F)(F)F)C(=O)Nn1c(=S)[nH]c2ccccc2c1=O
EC50: > 151 µM
IC50: > 151 µM

O=c1c(O)c(-c2ccc(O)cc2)oc2cc(O)cc(O)c12
EC50: > 97.7 µM
IC50: 51.3 µM

Cc1cn(C2CC3OP(=O)(C(C)(C)C#N)OCC3O2)c(=O)[nH]c1=O (stereo not given)
EC50: > 708 µM
IC50: 447 µM

c1cc2c(cc1NC1=NCCO1)CCCC2
EC50: > 200 µM
IC50: 1.55 µM

Nc1ncnc2c1ncn2C1CCC(CO)OC1 (stereo not given)
EC50: > 200 µM
IC50: > 200 µM

CC1=C(O)C(=O)C(c2c(C)cc(C)c(Br)c2C)=C(O)C1=O
EC50: > 115 µM
IC50: 15.5 µM
